In article PMC12090182, “Repurposing of the RIPK1-Selective Benzo[1,4]oxazepin-4-one Scaffold for the Development of a Type III LIMK1/2 Inhibitor” (ACS Chemical Biology, 2025):

System: MRC-9 cells
Test: Multiplex high-content viability assessment
Assay type: cell-based
Settings: for Cell count normalized to cells treated with DMSO control / Cell count per well / Population Fragmented Nuclei (%) / Population Healthy Nuclei (%) / Population Pyknosed Nuclei (%) / Population apoptotic cell (%) / Population cell that influence microtubule strucutre (%) / Population with increased mitochondrial mass (%) / Population with membrane disruption (%): 10 µM, human fibroblast
Experimental: To assess the influence on cell health, a high-content screening in living cells called the multiplex high-content assay, as described previously by Tjaden et al., was performed.[38] In brief, HEK293T (ATCC CRL-1573) and U2OS (ATCCHTB-96) were cultured in DMEM plus L-glutamine (high glucose) supplemented by 10% FBS (Gibco) and penicillin/streptomycin (Gibco). MRC-9 fibroblasts ([…]) were cultured in EMEM plus L-glutamine supplemented by 10% FBS (Gibco) and penicillin/streptomycin (Gibco). Cells were seeded at a density of 1250 cells per well in a 384-well plate in a culture medium (cell culture microplate, PS, f-bottom, μClear, 781091, Greiner), with a volume of 50 μL per well. All outer wells were filled with 100 μL of PBS buffer (Gibco). […] The cell shape and fluorescence were measured before treatment and 12, 24, and 48 h after compound treatment using the CQ1 high-content confocal microscope (Yokogawa, Musashino, Japan). […] The compounds were tested at 1 and 10 μM, respectively. Acquired images of the cells were processed using Yokogawa CellPathfinder software (v3.04.02.02). […] Results were normalized to cells exposed to 0.1% DMSO. All compounds were tested in biological duplicates, and SEM (standard error of mean) was calculated of biological duplicates.

## CN1C(=O)[C@@H](N2CCc3c(nn(Cc4ccccc4)c3C(N)=O)C2=O)COc2cc(Cl)ccc21 [Compound 10, (S)-2-benzyl-6-(8-chloro-5-methyl-4-oxo-2,3,4,5-tetrahydrobenzo[b][1,4]oxazepin-3-yl)-7-oxo-4,5,6,7-tetrahydro-2H-pyrazolo[3,4-c]pyridine-3-carboxamide]
0 h, replicate 1
  Cell count normalized to cells treated with DMSO control: 1.081
  Cell count per well: 162
  Population Fragmented Nuclei (%): 15.72%
  Population Healthy Nuclei (%): 65.41%
  Population Pyknosed Nuclei (%): 18.87%
  Population apoptotic cell (%): 33.33%
  Population cell that influence microtubule strucutre (%): 22.12%
  Population with increased mitochondrial mass (%): 9.62%
  Population with membrane disruption (%): 0.96%
0 h, replicate 2
  Cell count normalized to cells treated with DMSO control: 0.8971
  Cell count per well: 160
  Population Fragmented Nuclei (%): 22.07%
  Population Healthy Nuclei (%): 49.66%
  Population Pyknosed Nuclei (%): 28.28%
  Population apoptotic cell (%): 34.15%
  Population cell that influence microtubule strucutre (%): 44.44%
  Population with increased mitochondrial mass (%): 9.72%
  Population with membrane disruption (%): 5.56%
12 h, replicate 1
  Cell count normalized to cells treated with DMSO control: 1.162
  Cell count per well: 175
  Population Fragmented Nuclei (%): 18.93%
  Population Healthy Nuclei (%): 60.36%
  Population Pyknosed Nuclei (%): 20.71%
  Population apoptotic cell (%): 48.57%
  Population cell that influence microtubule strucutre (%): 53.92%
  Population with increased mitochondrial mass (%): 8.82%
  Population with membrane disruption (%): 1.96%
12 h, replicate 2
  Cell count normalized to cells treated with DMSO control: 0.8225
  Cell count per well: 137
  Population Fragmented Nuclei (%): 27.87%
  Population Healthy Nuclei (%): 49.18%
  Population Pyknosed Nuclei (%): 22.95%
  Population apoptotic cell (%): 25.00%
  Population cell that influence microtubule strucutre (%): 60.00%
  Population with increased mitochondrial mass (%): 5.00%
  Population with membrane disruption (%): 3.33%
24 h, replicate 1
  Cell count normalized to cells treated with DMSO control: 1.1009
  Cell count per well: 166
  Population Fragmented Nuclei (%): 25.32%
  Population Healthy Nuclei (%): 55.06%
  Population Pyknosed Nuclei (%): 19.62%
  Population apoptotic cell (%): 54.84%
  Population cell that influence microtubule strucutre (%): 45.98%
  Population with increased mitochondrial mass (%): 10.34%
  Population with membrane disruption (%): 1.15%
24 h, replicate 2
  Cell count normalized to cells treated with DMSO control: 0.8977
  Cell count per well: 148
  Population Fragmented Nuclei (%): 34.56%
  Population Healthy Nuclei (%): 47.06%
  Population Pyknosed Nuclei (%): 18.38%
  Population apoptotic cell (%): 40.00%
  Population cell that influence microtubule strucutre (%): 65.63%
  Population with increased mitochondrial mass (%): 9.38%
  Population with membrane disruption (%): 1.56%
48 h, replicate 1
  Cell count normalized to cells treated with DMSO control: 1.1403
  Cell count per well: 173
  Population Fragmented Nuclei (%): 22.56%
  Population Healthy Nuclei (%): 61.59%
  Population Pyknosed Nuclei (%): 15.85%
  Population apoptotic cell (%): 84.62%
  Population cell that influence microtubule strucutre (%): 40.59%
  Population with increased mitochondrial mass (%): 5.94%
  Population with membrane disruption (%): 0.00%
48 h, replicate 2
  Cell count normalized to cells treated with DMSO control: 0.9149
  Cell count per well: 149
  Population Fragmented Nuclei (%): 33.82%
  Population Healthy Nuclei (%): 56.62%
  Population Pyknosed Nuclei (%): 9.56%
  Population apoptotic cell (%): 46.15%
  Population cell that influence microtubule strucutre (%): 61.04%
  Population with increased mitochondrial mass (%): 6.49%
  Population with membrane disruption (%): 2.60%
MRC-9, 1 μM (Figure 6)
  impact on tubulin, mitochondrial mass, and cellular permeability in healthy cells: comparable to that of the 0.1% DMSO control
